Assay results reported in patent US4276378A, “High sensitivity assays for angiotensin converting enzyme” (priority 1977, dated 1981).
Peptide text beside a SMILES is read from it. * marks the point of attachment. Bz = O=C(c1ccccc1)*

Assays:
Guinea pig urinary ACE = target: T1, Guinea pig urinary ACE (Cavia porcellus, UniProt H0UWL7); assay: Sulfate and chloride effects on substrate hydrolysis (Example 3); type: biochemical; settings: 37° C.
T1 sequence (H0UWL7 33-1302): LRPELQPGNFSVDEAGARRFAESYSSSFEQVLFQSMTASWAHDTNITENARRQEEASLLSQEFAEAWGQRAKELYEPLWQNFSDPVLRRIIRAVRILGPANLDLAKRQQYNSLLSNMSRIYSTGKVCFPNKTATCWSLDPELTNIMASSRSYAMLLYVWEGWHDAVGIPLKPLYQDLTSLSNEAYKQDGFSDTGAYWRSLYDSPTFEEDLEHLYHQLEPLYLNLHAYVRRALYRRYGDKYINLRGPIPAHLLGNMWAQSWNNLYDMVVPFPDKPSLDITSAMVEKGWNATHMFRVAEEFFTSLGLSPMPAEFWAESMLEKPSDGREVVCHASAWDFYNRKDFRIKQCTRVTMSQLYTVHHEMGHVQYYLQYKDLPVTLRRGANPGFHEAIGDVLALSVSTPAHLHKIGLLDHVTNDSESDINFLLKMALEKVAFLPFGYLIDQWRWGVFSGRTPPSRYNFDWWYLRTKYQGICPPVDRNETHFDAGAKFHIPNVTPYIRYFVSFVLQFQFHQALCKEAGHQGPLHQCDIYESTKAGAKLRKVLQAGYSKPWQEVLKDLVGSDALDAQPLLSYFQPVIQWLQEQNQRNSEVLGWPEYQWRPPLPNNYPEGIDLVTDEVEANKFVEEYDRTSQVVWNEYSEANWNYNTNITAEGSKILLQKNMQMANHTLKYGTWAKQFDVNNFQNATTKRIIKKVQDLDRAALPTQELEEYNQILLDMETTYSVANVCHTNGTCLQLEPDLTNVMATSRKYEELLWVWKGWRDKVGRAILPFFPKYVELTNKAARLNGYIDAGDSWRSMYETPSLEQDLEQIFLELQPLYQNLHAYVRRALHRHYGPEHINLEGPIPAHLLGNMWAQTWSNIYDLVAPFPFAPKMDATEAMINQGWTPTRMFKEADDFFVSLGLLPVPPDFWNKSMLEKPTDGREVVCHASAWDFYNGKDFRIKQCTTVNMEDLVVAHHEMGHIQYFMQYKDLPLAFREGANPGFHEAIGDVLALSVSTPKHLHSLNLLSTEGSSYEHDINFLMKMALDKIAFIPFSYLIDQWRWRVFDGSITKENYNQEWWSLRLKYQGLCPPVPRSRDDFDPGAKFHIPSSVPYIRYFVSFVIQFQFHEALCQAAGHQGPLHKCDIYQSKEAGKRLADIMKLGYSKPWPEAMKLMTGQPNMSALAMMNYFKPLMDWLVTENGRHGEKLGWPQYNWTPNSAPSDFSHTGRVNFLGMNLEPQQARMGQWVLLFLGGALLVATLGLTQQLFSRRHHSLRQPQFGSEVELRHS

ACE [1] = assay: Apparent Km for HipHisLeu without sulfate; type: biochemical
ACE [2] = target: ACE (Homo sapiens, UniProt P12821); settings: chloride absent; cited from earlier work
ACE from rabbit lung = settings: removal of sodium chloride from the reaction medium; cited from earlier work
Guinea pig serum ACE = target: T2, Guinea pig serum ACE (Cavia porcellus, UniProt H0UWL7); assay: Kinetics of benzoyl-Phe-Ala-Pro hydrolysis (Example 6); type: biochemical; settings: for V (reaction velocity): 37° C., 10 minutes
T2 sequence (H0UWL7 33-1234): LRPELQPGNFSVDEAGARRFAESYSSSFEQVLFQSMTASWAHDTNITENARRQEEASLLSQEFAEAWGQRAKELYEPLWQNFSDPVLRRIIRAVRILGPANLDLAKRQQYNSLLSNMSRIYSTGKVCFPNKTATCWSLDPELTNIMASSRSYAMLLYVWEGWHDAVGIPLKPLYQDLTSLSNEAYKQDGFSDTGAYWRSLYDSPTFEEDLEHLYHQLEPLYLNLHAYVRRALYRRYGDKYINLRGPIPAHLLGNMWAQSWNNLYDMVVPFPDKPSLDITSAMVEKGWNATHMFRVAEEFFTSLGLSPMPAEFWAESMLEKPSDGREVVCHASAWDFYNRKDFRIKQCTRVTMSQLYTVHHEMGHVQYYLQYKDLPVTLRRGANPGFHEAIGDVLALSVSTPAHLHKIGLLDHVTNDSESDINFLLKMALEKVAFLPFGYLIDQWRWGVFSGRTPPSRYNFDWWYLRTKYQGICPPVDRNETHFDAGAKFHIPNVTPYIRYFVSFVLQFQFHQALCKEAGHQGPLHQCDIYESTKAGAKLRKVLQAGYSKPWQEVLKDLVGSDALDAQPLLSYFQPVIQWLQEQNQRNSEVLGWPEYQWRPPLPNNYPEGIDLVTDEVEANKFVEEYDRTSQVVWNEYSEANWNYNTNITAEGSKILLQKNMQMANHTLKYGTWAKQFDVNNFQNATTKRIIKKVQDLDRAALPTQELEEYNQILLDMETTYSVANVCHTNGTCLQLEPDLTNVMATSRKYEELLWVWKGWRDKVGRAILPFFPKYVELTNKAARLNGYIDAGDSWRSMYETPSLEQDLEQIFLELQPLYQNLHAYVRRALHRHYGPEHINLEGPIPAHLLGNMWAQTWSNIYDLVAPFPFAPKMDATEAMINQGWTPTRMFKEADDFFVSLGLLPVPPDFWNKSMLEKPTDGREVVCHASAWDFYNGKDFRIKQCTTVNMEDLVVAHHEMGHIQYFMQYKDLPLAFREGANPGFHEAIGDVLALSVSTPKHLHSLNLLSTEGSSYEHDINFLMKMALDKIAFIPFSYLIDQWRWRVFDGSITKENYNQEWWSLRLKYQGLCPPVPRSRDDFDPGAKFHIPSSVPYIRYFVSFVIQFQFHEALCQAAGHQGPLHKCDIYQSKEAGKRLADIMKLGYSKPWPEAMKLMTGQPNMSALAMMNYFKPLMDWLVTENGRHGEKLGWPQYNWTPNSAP

Chain of ACE (Homo sapiens, UniProt P12821) (P12821 30-1306, species assumed): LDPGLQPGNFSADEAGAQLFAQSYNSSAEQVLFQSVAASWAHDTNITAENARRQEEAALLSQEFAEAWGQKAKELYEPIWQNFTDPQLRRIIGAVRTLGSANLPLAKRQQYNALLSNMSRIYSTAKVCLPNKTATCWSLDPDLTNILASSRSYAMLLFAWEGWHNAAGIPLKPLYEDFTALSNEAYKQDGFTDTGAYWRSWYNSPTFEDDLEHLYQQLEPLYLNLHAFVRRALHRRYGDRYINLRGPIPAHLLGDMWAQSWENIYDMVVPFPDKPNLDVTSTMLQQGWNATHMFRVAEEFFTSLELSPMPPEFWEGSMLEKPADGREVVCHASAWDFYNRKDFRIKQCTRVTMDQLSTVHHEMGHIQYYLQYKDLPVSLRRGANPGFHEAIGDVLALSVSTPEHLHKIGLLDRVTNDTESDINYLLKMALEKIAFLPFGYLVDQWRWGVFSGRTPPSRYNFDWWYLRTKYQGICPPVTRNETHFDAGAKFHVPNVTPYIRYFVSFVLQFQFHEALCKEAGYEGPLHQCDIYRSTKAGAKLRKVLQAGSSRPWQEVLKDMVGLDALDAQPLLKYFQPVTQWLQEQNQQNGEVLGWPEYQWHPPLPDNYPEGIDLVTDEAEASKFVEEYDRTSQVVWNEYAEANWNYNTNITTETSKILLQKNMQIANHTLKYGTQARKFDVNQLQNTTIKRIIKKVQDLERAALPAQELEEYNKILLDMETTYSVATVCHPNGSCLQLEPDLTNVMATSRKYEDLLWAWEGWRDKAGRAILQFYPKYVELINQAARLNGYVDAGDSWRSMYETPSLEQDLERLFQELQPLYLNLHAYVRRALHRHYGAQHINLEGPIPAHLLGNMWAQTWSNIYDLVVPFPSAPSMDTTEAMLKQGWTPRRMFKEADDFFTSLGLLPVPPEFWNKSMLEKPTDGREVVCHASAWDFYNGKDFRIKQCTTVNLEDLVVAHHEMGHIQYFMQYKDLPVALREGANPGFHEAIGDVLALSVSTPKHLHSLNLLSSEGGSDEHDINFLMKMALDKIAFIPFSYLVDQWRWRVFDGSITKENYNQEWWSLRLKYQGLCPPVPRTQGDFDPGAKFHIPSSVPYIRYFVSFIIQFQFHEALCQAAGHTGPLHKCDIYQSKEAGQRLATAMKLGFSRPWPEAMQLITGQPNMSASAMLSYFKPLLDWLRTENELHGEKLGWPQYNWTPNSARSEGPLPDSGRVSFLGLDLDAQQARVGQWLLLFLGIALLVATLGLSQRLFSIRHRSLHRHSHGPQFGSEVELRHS

CC(C)C[C@H](NC(=O)[C@H](Cc1c[nH]cn1)NC(=O)CNC(=O)c1ccccc1)C(=O)O [HipHisLeu] (Bz-Gly-His-Leu-OH)
Reaction Velocity-Percent of Substrate Hydrolyzed in 10 minutes (Guinea pig urinary ACE; HipHisLeu, 0.05M Hepes, pH 8.0, 0.0M NaCl, Na2 SO4 concentration 0): 0%
Reaction Velocity-Percent of Substrate Hydrolyzed in 10 minutes (Guinea pig urinary ACE; HipHisLeu, 0.05M Hepes, pH 8.0, 0.0M NaCl, Na2 SO4 concentration 0.1): 0%
Reaction Velocity-Percent of Substrate Hydrolyzed in 10 minutes (Guinea pig urinary ACE; HipHisLeu, 0.05M Hepes, pH 8.0, 0.0M NaCl, Na2 SO4 concentration 0.2): 0%
Reaction Velocity-Percent of Substrate Hydrolyzed in 10 minutes (Guinea pig urinary ACE; HipHisLeu, 0.05M Hepes, pH 8.0, 0.0M NaCl, Na2 SO4 concentration 0.3): 0%
Reaction Velocity-Percent of Substrate Hydrolyzed in 10 minutes (Guinea pig urinary ACE; HipHisLeu, 0.05M Hepes, pH 8.0, 0.0M NaCl, Na2 SO4 concentration 0.4): 0.1%
Reaction Velocity-Percent of Substrate Hydrolyzed in 10 minutes (Guinea pig urinary ACE; HipHisLeu, 0.05M Hepes, pH 8.0, 0.0M NaCl, Na2 SO4 concentration 0.5): 0.1%
Reaction Velocity-Percent of Substrate Hydrolyzed in 10 minutes (Guinea pig urinary ACE; HipHisLeu, 0.05M Hepes, pH 8.0, 0.0M NaCl, Na2 SO4 concentration 0.6): 0.25%
Reaction Velocity-Percent of Substrate Hydrolyzed in 10 minutes (Guinea pig urinary ACE; HipHisLeu, 0.05M Hepes, pH 8.0, 0.0M NaCl, Na2 SO4 concentration 0.7): 0.25%
Reaction Velocity-Percent of Substrate Hydrolyzed in 10 minutes (Guinea pig urinary ACE; HipHisLeu, 0.05M Hepes, pH 8.0, 0.0M NaCl, Na2 SO4 concentration 0.75): 0.25%
Reaction Velocity-Percent of Substrate Hydrolyzed in 10 minutes (Guinea pig urinary ACE; HipHisLeu, 0.05M Hepes, pH 8.0, 0.0M NaCl, Na2 SO4 concentration 0.8): 0.25%
Reaction Velocity-Percent of Substrate Hydrolyzed in 10 minutes (Guinea pig urinary ACE; HipHisLeu, 0.05M Hepes, pH 8.0, 0.0M NaCl, Na2 SO4 concentration 0.9): 0.7%
Reaction Velocity-Percent of Substrate Hydrolyzed in 10 minutes (Guinea pig urinary ACE; HipHisLeu, 0.05M Hepes, pH 8.0, 0.0M NaCl, Na2 SO4 concentration 1.2): 3.9%
Reaction Velocity-Percent of Substrate Hydrolyzed in 10 minutes (Guinea pig urinary ACE; HipHisLeu, 0.05M Hepes, pH 8.0, 0.1M NaCl, Na2 SO4 concentration 0): 0.3%
Reaction Velocity-Percent of Substrate Hydrolyzed in 10 minutes (Guinea pig urinary ACE; HipHisLeu, 0.05M Hepes, pH 8.0, 0.1M NaCl, Na2 SO4 concentration 0.4): 4.1%
Reaction Velocity-Percent of Substrate Hydrolyzed in 10 minutes (Guinea pig urinary ACE; HipHisLeu, 0.05M Hepes, pH 8.0, 0.1M NaCl, Na2 SO4 concentration 0.6): 8.3%
Reaction Velocity-Percent of Substrate Hydrolyzed in 10 minutes (Guinea pig urinary ACE; HipHisLeu, 0.05M Hepes, pH 8.0, 0.1M NaCl, Na2 SO4 concentration 0.75): 12.05%
Reaction Velocity-Percent of Substrate Hydrolyzed in 10 minutes (Guinea pig urinary ACE; HipHisLeu, 0.05M Hepes, pH 8.0, 0.1M NaCl, Na2 SO4 concentration 0.9): 12.25%
Km (ACE [1]): ~2600 µM
inhibition of hydrolysis (ACE [2]): 86%
inhibition of hydrolysis (ACE from rabbit lung): 92%

C[C@H](NC(=O)[C@H](Cc1ccccc1)NC(=O)c1ccccc1)C(=O)N1CCC[C@H]1C(=O)O [benzoylPheAlaPro, benzoyl-Phe-Ala-Pro] (Bz-Phe-Ala-Pro-OH)
Reaction Velocity-Percent of Substrate Hydrolyzed in 10 minutes (Guinea pig urinary ACE; benzPheAlaPro, 0.05 Hepes, pH 8.0, 0.15M HCl, Na2 SO4 concentration 0): 4.4%
Reaction Velocity-Percent of Substrate Hydrolyzed in 10 minutes (Guinea pig urinary ACE; benzPheAlaPro, 0.05 Hepes, pH 8.0, 0.15M HCl, Na2 SO4 concentration 0.1): 5.0%
Reaction Velocity-Percent of Substrate Hydrolyzed in 10 minutes (Guinea pig urinary ACE; benzPheAlaPro, 0.05 Hepes, pH 8.0, 0.15M HCl, Na2 SO4 concentration 0.2): 4.45%
Reaction Velocity-Percent of Substrate Hydrolyzed in 10 minutes (Guinea pig urinary ACE; benzPheAlaPro, 0.05 Hepes, pH 8.0, 0.15M HCl, Na2 SO4 concentration 0.3): 4.85%
Reaction Velocity-Percent of Substrate Hydrolyzed in 10 minutes (Guinea pig urinary ACE; benzPheAlaPro, 0.05 Hepes, pH 8.0, 0.15M HCl, Na2 SO4 concentration 0.5): 5.6%
Vmax (Guinea pig serum ACE; 0.05 M Hepes, pH 8.0, 0.15 M NaCl, Guinea pig serum diluted 1:1000): 10 pmol/min/mL
Km (Guinea pig serum ACE; 0.05 M Hepes, pH 8.0, 0.15 M NaCl, Lineweaver and Burke plot, read-out: apparent Km): 14 µM
1/V (Guinea pig serum ACE; BenzPheAlaPro concentration 1.0 μM): 1.50 mL·min/pmol
V (reaction velocity) (Guinea pig serum ACE; BenzPheAlaPro concentration 1.0 μM, 0.05 M Hepes, pH 8.0, 0.15 M NaCl): 0.67 pmol/min/mL
1/V (Guinea pig serum ACE; BenzPheAlaPro concentration 5.0 μM): 0.48 mL·min/pmol
V (reaction velocity) (Guinea pig serum ACE; BenzPheAlaPro concentration 5.0 μM, 0.05 M Hepes, pH 8.0, 0.15 M NaCl): 2.08 pmol/min/mL
1/V (Guinea pig serum ACE; BenzPheAlaPro concentration 10.0 μM): 0.24 mL·min/pmol
V (reaction velocity) (Guinea pig serum ACE; BenzPheAlaPro concentration 10.0 μM, 0.05 M Hepes, pH 8.0, 0.15 M NaCl): 4.17 pmol/min/mL
1/V (Guinea pig serum ACE; BenzPheAlaPro concentration 66.7 μM): 0.11 mL·min/pmol
V (reaction velocity) (Guinea pig serum ACE; BenzPheAlaPro concentration 66.7 μM, 0.05 M Hepes, pH 8.0, 0.15 M NaCl): 9.09 pmol/min/mL
